Results taken from patent US10058586B2, “Use of human small leucine zipper protein in adipocyte differentiation procedure” (Korea University Research and Business Foundation, priority 2013, dated 2018).
d = 2'-deoxy (DNA)

Target: T1, PPARγ2 (Homo sapiens, UniProt P37231)
T1 sequence (P37231 1-505): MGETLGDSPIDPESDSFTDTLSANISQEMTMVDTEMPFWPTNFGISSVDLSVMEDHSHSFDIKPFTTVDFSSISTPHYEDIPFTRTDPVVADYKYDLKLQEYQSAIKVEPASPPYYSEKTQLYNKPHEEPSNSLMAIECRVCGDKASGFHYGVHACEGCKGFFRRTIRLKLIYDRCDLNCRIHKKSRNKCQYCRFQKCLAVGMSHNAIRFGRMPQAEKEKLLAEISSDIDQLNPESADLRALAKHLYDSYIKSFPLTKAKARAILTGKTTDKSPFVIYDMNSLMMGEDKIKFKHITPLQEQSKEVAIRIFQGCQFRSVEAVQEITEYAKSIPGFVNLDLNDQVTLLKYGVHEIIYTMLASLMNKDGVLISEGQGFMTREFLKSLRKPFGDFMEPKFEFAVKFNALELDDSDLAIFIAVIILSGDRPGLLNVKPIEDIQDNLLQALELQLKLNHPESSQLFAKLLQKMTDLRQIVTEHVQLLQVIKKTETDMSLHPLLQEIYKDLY
Test: Luciferase reporter gene analysis (FABP4-Luc) of PPARγ2 transcriptional activity in 293T cells
Assay type: cell-based
Set-up: expressed in transfected cells; host or cells: 293T cells
Conditions: for sLZIP-mediated PPARγ2 transcriptional activity (luciferase): 293T cells expressing sLZIP, 100 nM si-RNAs, with or without 10 nM RZD
Procedure: C3H10T1/2 and 293T cells were plated in a 12-well culture dish at a density of 2×10^5 cells/well and incubated for 24 hours. Then, according to instructions of the manufacturer, the cells were transfected with a 0.2 μg of reporter genes and 0.1 to 0.5 μg of a laboratory plasmid using Lipofectamine 2000 or Genefectine. After 24 hours, the cells were cultured in a serum-free DMEM with or without 10 nM of rosiglitazone. siRNAs were prepared using sLZIP and HDAC target sequences (Table 1). For an RNA interference experiment, according to instructions of the manufacturer, the cells were transfected with scrambled control group RNA and appropriate siRNAs using Lipofectamine 2000. Human MSC and C3H10T/1/2 cells were infected with an adenovirus vector containing cDNA of human sLZIP or an empty vector. The infected medium was exchanged with a fresh medium after two hours.
Appropriately transfected cells were washed with cold PBS twice, and a reporter lysis buffer (Promega) was used and lysed in a culture dish. Luciferase analysis was performed using a luciferase analysis system (Promega Corporation, Madison, Wis.). A luciferase activity was recorded in Luminometer 20/20^n (Turner BioSystems, Sunnyvale, Calif.) according to instructions of the manufacturer. The luciferase activity was normalized to a β-galactosidase activity. For β-galactosidase analysis, CMV-β-galactosidase was transfected with luciferase reporter genes. All pieces of data were represented as mean±standard deviation of the results from at least three independent experiments.
In order to examine an effect of sLZIP on the transcriptional activity of PPARγ2, 293T cells were temporarily transfected with PPARγ2 (0.5 μg), β-galactosidase (0.1 μg), FABP4-Luc reporter genes (0.2 μg) and sLZIP at different contents (0.1 to 0.5 μg). After the transfection, the cells were stimulated with or without 10 nM of rosiglitazone (RZD) (FIG. 1A), pioglitazone (PZD) (FIG. 1B), and troglitazone (TZD) (FIG. 1C). A relative luciferase activity was analyzed with or without cell ligand treatment 24 hours after transfection. Also, the 293T cells were transiently transfected with si-sLZIP at different contents (50 and 100 nM), and the cells were treated or not treated with RZD (FIG. 1D). FABP4-Luc stable C3H10T1/2 cells were infected with a sLZIP-expressing adenovirus, and then differentiated into adipocytes for 4 days (FIG. 1E). A luciferase activity was normalized to a β-galactosidase activity and represented as a relative activity (fold change). All experiments were repeated three times, and bars in the graph represent mean±standard deviation. *, P<0.05; **, P<0.01
For this purpose, 293T cells were transiently transfected with PPARγ2 (0.5 μg), (3-galactosidase (0.1 μg), FABP4-Luc reporter genes (0.2 μg) and sLZIP (0.1 μg). After the transfection, the cells were stimulated with or without 10 nM of RZD and 10 nM of TSA (FIG. 4A). A promoter activity was measured according to luciferase analysis. In the 293T cells, FABP4-Luc reporter genes, sLZIP, PPAR, β-galactosidase, and 100 nM of si-RNAs and HDAC1, 2, 3 and 8 for a control group were expressed. After the transfection, the cells were stimulated with or without 10 nM of RZD, and a promoter activity was measured (FIG. 4B). 293T cells were temporarily transfected with FABP4-Luc reporter genes, PPARγ2, β-galactosidase, HDAC3 (0.5 μg) and sLZIP (0.1 μg). After the transfection, the cells were stimulated with or without 10 nM of RZD, and luciferase analysis was performed (FIG. 4C). A luciferase activity was normalized to a β-galactosidase activity and represented as a relative intensity (fold change). All experiments were repeated three times, and bars in the graph represent mean±standard deviation. GFP-sLZIP expression constructs were expressed in C3H10T1/2 cells, rabbit anti-HDAC3 antibodies and Texas Red-labeled anti-rabbit antibodies were used and analysis was performed under a fluorescence microscope. The nucleus was stained with DAPI (FIG. 4D). […]

Substance	transcriptional activity of PPARγ2 (relative luciferase activity) (293T cells, si-sLZIP 50 and 100 nM, treated or not treated with RZD)	sLZIP-mediated PPARγ2 transcriptional activity (luciferase)
si-sLZIP: siRNA for sLZIP, SEQ ID NO: 5 and 6 (+dTdT) (chain 1 GGACCCAGAUGACUCCACAGCAUAU; chain 2 AUAUGCUGUGGAGUCAUCUGGGUCC; RNA, 3' dTdT, backbone not given here) [reference compound]	increased the transcriptional activity of PPARγ2	
siRNA for HDAC1: siRNA with HDAC1 target sequence, SEQ ID NO: 7 and 8 (chain 1 CGACUGUUUGAGAACCUUA; chain 2 UAAGGUUCUCAAACAGUCGCU; RNA, 3' dTdT, backbone not given here) [reference compound]		not involved in sLZIP-mediated PPARγ2 regulation
siRNA for HDAC2: siRNA with HDAC2 target sequence, SEQ ID NO: 9 and 10 (chain 1 GGUCAAUAAGACCAGAUAA; chain 2 UUAUCUGGUCUUAUUGACCG; RNA, 3' dTdT, backbone not given here) [reference compound]		not involved in sLZIP-mediated PPARγ2 regulation
siRNA for HDAC3: siRNA with HDAC3 target sequence, SEQ ID NO: 11 and 12, used to knock down HDAC3 (chain 1 GCCGGUUAUCAACCAGGUA; chain 2 UACCUGGUUGAUAACCGGC; RNA, 3' dTdT, backbone not given here) [reference compound]		significantly increased
siRNA for HDAC8: siRNA with HDAC8 target sequence, SEQ ID NO: 13 and 14 (chain 1 CAUUCAGGAUGGCAUACAA; chain 2 UUGUAUGCCAUCCUGAAUGGG; RNA, 3' dTdT, backbone not given here) [reference compound]		not involved in sLZIP-mediated PPARγ2 regulation
